Key:
eNOS promoter = test: Activation of eNOS transcription (eNOS promoter-luciferase reporter gene assay); type: cell-based, human; conditions: 18 h incubation; for EC50: EC50 of transcription induction ratio vs compound concentration, determined graphically, human endothelial cell line stably transfected with eNOS promoter-luciferase construct; for maximal fold induction: maximum transcription induction ratio (luciferase activity with compound / solvent alone), human endothelial cell line with eNOS promoter-luciferase construct, read-out: TIR(max)
Outline: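 Human endothelial cell line stably carrying a 3.5 kB eNOS promoter fragment driving firefly luciferase, treated 18 h with compound (0.5% DMSO final). Luciferase induction relative to solvent gave transcription induction ratio versus concentration; EC50 determined graphically.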

Compound	melting point [°C]	EC50 (eNOS promoter) [nM]	maximal fold induction (eNOS promoter)
O=C(NC1CCCc2ccccc2C1)c1ccc(F)cc1 (stereo not shown) [Compound 1, 4-FLUORO-N-(6,7,8,9-TETRAHYDRO-5H-BENZOCYCLOHEPTEN-6-YL)-BENZAMIDE]	165	20	3.3
O=C(NC1CCCc2ccccc2C1O)c1ccc(F)cc1 (stereo not shown) [Compound 2, 4-FLUORO-N-(5-HYDROXY-6,7,8,9-TETRAHYDRO-5H-BENZOCYCLOHEPTEN-6-YL)-BENZAMIDE]	156	6000	2.2
Cc1nc2ccc(C(=O)N[C@H]3CCCc4ccccc4C3)cc2[nH]1 [Compound 7, (S)-2-METHYL-3H-BENZOIMIDAZOLE-5-CARBOXYLIC ACID (6,7,8,9-TETRAHYDRO-5H-BENZOCYCLOHEPTEN-6-YL)-AMIDE]	206	75	3.3
Cc1cncc(C(=O)NC2CCCc3ccccc3C2)c1 (stereo not shown) [Compound 91, 5-METHYL-N-(6,7,8,9-TETRAHYDRO-5H-BENZOCYCLOHEPTEN-6-YL)-NICOTINAMIDE]		2300	2.9
Cc1cc(C(=O)N[C@H]2CCCc3ccccc3C2)n(C)n1 [Compound 122, (S)-2,5-DIMETHYL-2H-PYRAZOLE-3-CARBOXYLIC ACID (6,7,8,9-TETRAHYDRO-5H-BENZOCYCLOHEPTEN-6-YL)-AMIDE]		15	2.85

— patent US7709478B2, “Acylated 6,7,8,9-tetrahydro-5H-benzocycloheptenyl amines and their use as pharmaceutical agents” (sanofi-aventis Deutschland GmbH, priority 2001, dated 2010)
